The source made the active and inactive calls. The rule behind the calls is not given here.
Columns and labels:
[1] = Cmax in ICR-CD1 mouse plasma at 40 mg/kg, po; type: ADME, organism-based
Plasmodium berghei [2] = assay: Antimalarial activity against liver-stage Plasmodium berghei sporozoites ANKA expressing GFP infected female Albino C57BL/6 mouse assessed as reduction in parasite growth at 40 mg/kg, po measured at 48 hrs by IVIS imaging analysis; type: functional; set-up: scale not given: the % may be the effect or the level left
Plasmodium berghei [3] = assay: Antimalarial activity against liver-stage Plasmodium berghei sporozoites ANKA expressing GFP infected in po dosed female Albino C57BL/6 mouse assessed as reduction in parasite load measured after 24 to 48 hrs by IVIS imaging analysis; type: functional, organism-based; conditions: dose 20-40 mg/kg, time 24-48 hrs
[4] = %AUCextra in ICR-CD1 mouse liver at 40 mg/kg, po; type: ADME, organism-based; conditions: in vivo
[5] = target: T1, Voltage-gated inwardly rectifying potassium channel KCNH2 (Homo sapiens, UniProt Q12809); assay: Inhibition of hERG expressed in CHO-K1 cells at 5 uM relative to control; type: toxicity, cell-based; conditions: cho-k1, 5 µM
[6] = target: T1, Voltage-gated inwardly rectifying potassium channel KCNH2; assay: Inhibition of hERG expressed in CHO-K1 cells at 10 uM relative to control; type: toxicity, cell-based; conditions: cho-k1, 10 µM
[7] = Half life in ICR-CD1 mouse liver at 40 mg/kg, po; type: ADME, organism-based
in vitro = conditions: human
Description: Selectivity index, ratio of IC50 for cytotoxicity against human HepG2 cells assessed as cell viability to IC50 for antiplasmodial activity against asexual erythrocytic stage of Plasmodium falciparum D6 assessed as inhibition of parasitic growth incubated

HepG2 = assay: Cytotoxicity against human HepG2 cells assessed as cell viability incubated for 72 hrs by MTT assay; type: toxicity, cell-based; conditions: hepg2
[8] = Aqueous solubility of compound in PBS buffer at pH 7.4 incubated for 90 mins by UV-vis spectroscopic analysis; conditions: pH 7.4, 1.5 h
Plasmodium yoelii [9] = assay: Antiplasmodial activity against asexual erythrocytic stage of Plasmodium yoelii infected in female CFI mouse model assessed as reduction in parasitemia at 1 mg/kg, po administered once daily for 4 days and measured on day 5 by Giemsa staining based microscopic analysis relative to control; type: functional; set-up: scale not given: the % may be the effect or the level left; conditions: time 5 day
Plasmodium berghei [10] = assay: Antimalarial activity against liver-stage Plasmodium berghei sporozoites ANKA expressing GFP infected female Albino C57BL/6 mouse assessed as reduction in parasite growth at 40 mg/kg, po measured at 72 hrs by IVIS imaging analysis; type: functional; set-up: scale not given: the % may be the effect or the level left
[11] = Mutagenicity in Salmonella typhimurium TA98 at 10 uM in absence of S9 fraction incubated for 5 days by AMES assay; type: toxicity; conditions: salmonella enterica subsp. enterica serovar typhimurium, s9, 120 h, time 5 day
[12] = Metabolic stability in mouse liver microsomes assessed as intrinsic clearance measured upto 60 mins LC-MS analysis
[13] = Metabolic stability in mouse liver microsomes assessed as half life measured upto 60 mins LC-MS analysis
[14] = target: T1, Voltage-gated inwardly rectifying potassium channel KCNH2; assay: Inhibition of hERG expressed in CHO-K1 cells at 2.5 uM relative to control; type: toxicity, cell-based; conditions: cho-k1, 2.5 µM
[15] = Mutagenicity in Salmonella typhimurium TA98 at 10 uM in presence of S9 fraction incubated for 5 days by AMES assay; type: toxicity, subcellular; conditions: salmonella enterica subsp. enterica serovar typhimurium, s9, 120 h, time 5 day
[16] = AUClast in ICR-CD1 mouse liver at 40 mg/kg, po; type: ADME, organism-based
[17] = AUC (0 to infinity) in ICR-CD1 mouse plasma at 40 mg/kg, po; type: ADME, organism-based; conditions: in vivo
[18] = Mutagenicity in Salmonella typhimurium TA100 at 10 uM in absence of S9 fraction incubated for 5 days by AMES assay; type: toxicity; conditions: salmonella enterica subsp. enterica serovar typhimurium, s9, 120 h, time 5 day
[19] = Cmax in ICR-CD1 mouse liver at 40 mg/kg, po; type: ADME, organism-based
Plasmodium yoelii [20] = assay: Antiplasmodial activity against asexual erythrocytic stage of Plasmodium yoelii infected in female CFI mouse model assessed as reduction in parasitemia at 10 mg/kg, po administered once daily for 4 days and measured on day 5 by Giemsa staining based microscopic analysis relative to control; type: functional; set-up: scale not given: the % may be the effect or the level left; conditions: time 5 day
[21] = Apparent oral clearance in ICR-CD1 mouse liver at 40 mg/kg, po; type: ADME, organism-based
[22] = target: T1, Voltage-gated inwardly rectifying potassium channel KCNH2; assay: Inhibition of hERG expressed in CHO-K1 cells at 0.313 uM relative to control; type: toxicity, cell-based; conditions: cho-k1, 0.313 µM
Plasmodium falciparum [23] = assay: microbe, parasite or virus in culture; conditions: D6, 72 h
[24] = %AUCextra in ICR-CD1 mouse plasma at 40 mg/kg, po; type: ADME, organism-based; conditions: in vivo
[25] = Metabolic stability in human liver microsomes assessed as intrinsic clearance measured upto 60 mins LC-MS analysis
[26] = target: T1, Voltage-gated inwardly rectifying potassium channel KCNH2; assay: Inhibition of hERG expressed in CHO-K1 cells at 1.25 uM relative to control; type: toxicity, cell-based; conditions: cho-k1, 1.25 µM
[27] = Tmax in ICR-CD1 mouse plasma at 40 mg/kg, po; type: ADME, organism-based
[28] = AUC (0 to infinity) in ICR-CD1 mouse liver at 40 mg/kg, po; type: ADME, organism-based
Plasmodium yoelii [29] = assay: Antiplasmodial activity against asexual erythrocytic stage of Plasmodium yoelii infected in po dosed female CFI mouse model assessed as reduction in parasitemia administered once daily for 4 days and measured on day 5 by Giemsa staining based microscopic analysis; type: functional; conditions: 120 h, time 5 day
[30] = target: T1, Voltage-gated inwardly rectifying potassium channel KCNH2; assay: Inhibition of hERG expressed in CHO-K1 cells at 0.625 uM relative to control; type: toxicity, cell-based; conditions: cho-k1, 0.625 µM
[31] = Apparent oral clearance in ICR-CD1 mouse plasma at 40 mg/kg, po; type: ADME, organism-based; conditions: in vivo
Plasmodium falciparum [32] = assay: microbe, parasite or virus in culture; conditions: Dd2, 72 h
[33] = Mutagenicity in Salmonella typhimurium TA100 at 10 uM in presence of S9 fraction incubated for 5 days by AMES assay; type: toxicity, subcellular; conditions: salmonella enterica subsp. enterica serovar typhimurium, s9, 120 h, time 5 day
[34] = Half life in ICR-CD1 mouse plasma at 40 mg/kg, po; type: ADME, organism-based
Plasmodium yoelii [35] = assay: Antiplasmodial activity against asexual erythrocytic stage of Plasmodium yoelii infected in female CFI mouse model at 25 mg/kg, po administered once daily for 4 days and measured on day 5 by Giemsa staining based microscopic analysis; type: functional, organism-based; conditions: time 5.0 day
[36] = MRTlast in ICR-CD1 mouse plasma at 40 mg/kg, po; type: ADME, organism-based
Plasmodium falciparum [37] = assay: microbe, parasite or virus in culture; conditions: Tm90-C2B, 72 h
[38] = Tmax in ICR-CD1 mouse liver at 40 mg/kg, po; type: ADME, organism-based
[39] = AUClast in ICR-CD1 mouse plasma at 40 mg/kg, po; type: ADME, organism-based
[40] = Metabolic stability in human liver microsomes assessed as half life measured upto 60 mins LC-MS analysis
Plasmodium berghei [41] = assay: Antimalarial activity against blood-stage Plasmodium berghei sporozoites ANKA expressing GFP infected in po dosed female Albino C57BL/6 mouse assessed as reduction in parasite load measured after 72 hrs by flow cytometry analysis; type: functional, organism-based; conditions: dose 20-40 mg/kg
[42] = MRTlast in ICR-CD1 mouse liver at 40 mg/kg, po; type: ADME, organism-based

T1 sequence (Q12809 whole entry): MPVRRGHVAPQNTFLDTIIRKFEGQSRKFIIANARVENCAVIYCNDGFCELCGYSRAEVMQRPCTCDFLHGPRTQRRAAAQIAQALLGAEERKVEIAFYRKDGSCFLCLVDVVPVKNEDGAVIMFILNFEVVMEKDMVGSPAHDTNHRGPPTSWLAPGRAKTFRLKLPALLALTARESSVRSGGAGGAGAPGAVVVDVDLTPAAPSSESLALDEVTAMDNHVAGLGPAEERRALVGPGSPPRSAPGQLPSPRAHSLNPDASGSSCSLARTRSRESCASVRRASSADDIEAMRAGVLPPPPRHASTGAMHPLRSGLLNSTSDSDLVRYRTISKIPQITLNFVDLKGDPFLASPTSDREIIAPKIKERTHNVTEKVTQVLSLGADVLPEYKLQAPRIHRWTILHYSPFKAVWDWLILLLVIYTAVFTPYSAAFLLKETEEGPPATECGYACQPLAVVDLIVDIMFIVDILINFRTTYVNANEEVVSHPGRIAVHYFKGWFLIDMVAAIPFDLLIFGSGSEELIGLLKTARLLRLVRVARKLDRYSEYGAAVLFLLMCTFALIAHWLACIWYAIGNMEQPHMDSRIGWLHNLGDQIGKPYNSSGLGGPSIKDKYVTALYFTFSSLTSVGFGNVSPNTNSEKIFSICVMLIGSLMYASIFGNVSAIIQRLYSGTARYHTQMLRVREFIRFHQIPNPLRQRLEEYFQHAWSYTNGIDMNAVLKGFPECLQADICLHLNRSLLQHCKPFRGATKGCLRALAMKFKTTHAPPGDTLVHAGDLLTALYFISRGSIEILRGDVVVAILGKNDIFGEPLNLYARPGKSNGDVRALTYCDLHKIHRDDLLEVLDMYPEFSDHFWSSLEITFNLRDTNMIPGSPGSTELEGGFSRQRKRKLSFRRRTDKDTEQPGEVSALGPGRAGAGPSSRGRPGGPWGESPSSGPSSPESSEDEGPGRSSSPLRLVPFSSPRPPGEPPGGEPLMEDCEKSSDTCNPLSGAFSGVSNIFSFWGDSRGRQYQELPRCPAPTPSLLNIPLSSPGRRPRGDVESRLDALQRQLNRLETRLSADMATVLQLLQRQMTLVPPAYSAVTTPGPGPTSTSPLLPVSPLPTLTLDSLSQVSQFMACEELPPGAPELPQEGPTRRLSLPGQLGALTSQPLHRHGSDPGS

CCCCCc1cc(/C=C2\N=C(c3ccc[nH]3)C=C2Oc2ccccc2)[nH]c1C.Cl
Cmax [1]: 199 ng/mL
Activity (Plasmodium berghei [2]): 43%
Activity (Plasmodium berghei [3]): Dose-dependent-effect
%AUCextra [4]: 0.267%
inhibition (INH) [5]: 10.3%
inhibition (INH) [6]: 17.5%
half-life [7]: 302 min
selectivity ratio (in vitro): 884
IC50 (HepG2): 6.26 µM
solubility [8]: < 3.125 µM
Activity (Plasmodium yoelii [9]): 54.6%
Activity (Plasmodium berghei [10]): 74%
Activity [11]: Non-toxic
microsomal CLint at 1 h [12]: 25.2 µL/min/mg
half-life at 1 h [13]: 54.9 min
inhibition (INH) [14]: 10.3%
Activity [15]: Non-toxic
AUC(0-t) [16]: 31900 ng·h/mL
AUC [17]: 5974 ng·h/mL
Activity [18]: Non-toxic
Cmax [19]: 1130 ng/mL
Activity (Plasmodium yoelii [20]): 100%
CL/F [21]: 0.615 mL/min/kg
inhibition (INH) [22]: 0.24%
IC50 (Plasmodium falciparum [23]): 7.08 nM
%AUCextra [24]: 0.426%
microsomal CLint at 1 h [25]: 4.02 µL/min/mg
inhibition (INH) [26]: 9.85%
Tmax [27]: 30 h
AUC(0-inf) [28]: 32000 ng·h/mL
ED50 (Plasmodium yoelii [29]; Plasmodium yoelii, po, read-out: ED50): 0.99 mg/kg/day
ED50 (Plasmodium yoelii [29]): 1.11 mg/kg/day
inhibition (INH) [30]: 7.31%
CL/F [31]: 199 mL/h/kg
IC50 (Plasmodium falciparum [32]): 3.87 nM
Activity [33]: Non-toxic
half-life [34]: 385 min
Activity (Plasmodium yoelii [35]): Active
MRT last [36]: 28.3 h
IC50 (Plasmodium falciparum [37]): 8.74 nM
Tmax [38]: 24 h
AUC(0-t) [39]: 5950 ng·h/mL
half-life at 1 h [40]: > 60 min
Activity (Plasmodium berghei [41]): Dose-dependent-effect
MRT last [42]: 29.1 h
